Measurements reported in ChEMBL document CHEMBL1150194, “Two new brominated tyrosine derivatives from the sponge Druinella (= Psammaplysilla) purpurea” (J Nat Prod, 1991).
The source made the active and inactive calls. No cut-off for these calls is given here.

Tests used:
[1] = test system: Staphylococcus aureus; experiment: Antimicrobial activity against Staphylococcus aureus at 100 ug/disk; type: functional, organism-based
[2] = test system: Bacillus subtilis; experiment: Antimicrobial activity against Bacillus subtilis at 100 ug/disk; type: functional, organism-based

Row | SMILES | Activity [1] | Activity [2]
1 | COc1c(Br)cc(C/C(=N\O)C(=O)NCCCOc2ccc(CCN)cc2Br)cc1Br | Active | Active
2 | COC1=C(Br)[C@H](O)[C@@]2(C=C1Br)CC(C(=O)NCCCOc1ccc(CCN)cc1Br)=NO2 | Active | Active
